Entries after “also recorded” stand apart in the source; their conditions may differ. Like-named read-outs stand apart in the source and are kept apart here.
Legend:
[1] = system: A549 (non-small cell lung); assay: Antiproliferative activity, NCI protocol; type: cell-based, human
Method: (§1) Organochalcogen derivatives prepared herein were evaluated in vitro as potential antiproliferative agents, using a panel of six human tumour cell lines: A549 (non-small cell lung), HBL-100 (breast), HeLa (cervix), SW1573 (non-small cell lung), as drug sensitive lines, T-47D (breast) and WiDr (colon) as drug resistant lines. In addition to precursors 2, 6, 7, 13, 14, 17, 19, ebselen and cisplatin (CDDP) were used as reference drugs. […] In both cases, the NCI protocol, with minor modifications, was followed; selected data, including the selectivity index (S.I.) can be found in Table 3 and full data in Supporting Information (Table S1).
(§2) The in vitro antiproliferative activity was assayed using minor modifications of the protocol of the National Cancer Institute (NCI) of the United States against the six human solid tumor cell and the non-tumor cell lines tested.

[2] = system: HBL-100 (breast); assay: Antiproliferative activity, NCI protocol; type: cell-based, human
Method: as §1, §2

[3] = system: HeLa (cervix); assay: Antiproliferative activity, NCI protocol; type: cell-based, human
Method: as §1, §2

[4] = system: SW1573 (non-small cell lung); assay: Antiproliferative activity, NCI protocol; type: cell-based, human
Method: as §1, §2

[5] = system: T-47D (breast); assay: Antiproliferative activity, NCI protocol; type: cell-based, human; settings: read-out: GI50 T-47D (Breast)
Method: as §1, §2

[6] = system: WiDr (colon); assay: Antiproliferative activity, NCI protocol; type: cell-based, human; settings: read-out: GI50 WiDr (Colon)
Method: as §1, §2

[7] = Free radical scavenging (DPPH method); settings: 30 min incubation, absorbance at 515 nm, read-out: EC50 antiradical activity (DPPH)
Method: (§3) In vitro antioxidant properties of key unprotected phenolic derivatives were analyzed using two different methodologies: free radical scavenging capacity, using the DPPH method (2,2-diphenyl-1-picrylhydrazyl), a HAT (hydrogen atom transfer) procedure, widely-used for both natural and synthetic derivatives, and also the capacity for scavenging H2O2, one of the most common ROS in degenerative diseases, including cancer.
DPPH is a commercially-available stable free radical commonly used for in vitro testing of radical scavenging properties of antioxidants.
Reported methodology was used with minor modifications. To a 60 µM methanolic DPPH solution (1.17 mL), the antioxidant solution (5–7 different solutions, 30 µL) or solvent (control, 30 µL) were added. After 30 min. of incubation in the dark, absorbance was measured at 515 nm, and EC50 values were calculated.

[8] = H2O2 scavenging (phenol red / horseradish peroxidase); settings: At 50 µM
Method: as §3
Herein, following Bahorun’s methodology, in vitro levels of H2O2 were measured in an indirect fashion, by registering the H2O2-mediated oxidation of phenol red in the presence of horseradish peroxidase, to give a chromophore with a maximum absorption at 610 nm. Accordingly, in the presence of an antioxidant agent, there is an inverse correlation between the observed absorbance, and the scavenging properties. Table 2 depicts the H2O2-scavenging properties of compounds prepared herein, and tested at a final 50 µM concentration.
Reported methodology was used with minor modifications.

[9] = system: six human tumour cell lines (A549, HBL-100, HeLa, SW1573, T-47D, WiDr); assay: Antiproliferative activity, panel of six human tumour cell lines; type: cell-based; settings: summary over the tested tumour cell lines, highest tested concentration 100 µM
Method: as §1, §2

[10] = system: SW1573; assay: P-glycoprotein assay, wild type line; type: cell-based; settings: Homo sapiens, 48 h exposure
Method: (§4) This assay allows prediction of whether a certain chemotherapeutic agent could develop chemoresistance when behaving as a P-gp substrate, one of the most common efllux-pumps used for the extrusion of cell xenobiotics. For that purpose, a cell line-based assay was used, in particular the lung cancer cell line in its wild type (SW1573), and its variant overexpressing P-gp (Sw1573/Pgp). Moreover, compounds were tested in the presence and in the absence of verapamil, which is known to inhibit P-gp. Chemotherapeutic agents paclitaxel (PTX) and vinblastine (VB) are used herein as reference compounds. In this assay, the resistance factor (Rf) for a certain compound is defined as the ratio of GI50 in the cell line overexpressing P-gp and the wild one (Table 4), high values of Rf denoting that the compound behaves as a P-gp substrate, and thus, chemoresistance through this mechanism will probably take place.

[11] = P-glycoprotein assay, line overexpressing P-gp; type: cell-based, human; settings: human, 48 h exposure
Method: as §4

[12] = system: SW1573/Pgp; assay: P-glycoprotein assay, line overexpressing P-gp; type: cell-based, human; settings: ratio between GI50 values in SW1573/PGP and SW1573 cells; for Rf w Verapamil: with verapamil; for Rf w/o Verapamil: without verapamil
Method: as §4

[13] = Homo sapiens, A549; read-out: GI50 A549 (Lung)
[14] = Homo sapiens, HBL-100; read-out: GI50 HBL-100 (Breast)
[15] = Homo sapiens, HeLa; read-out: GI50 HeLa (Cervix)
[16] = Homo sapiens, SW1573, Table S1, read-out: GI50 SW1573 (Lung)
[17] = Homo sapiens, T47D, drug resistant line
[18] = Homo sapiens, WiDr, drug resistant line
[19] = Homo sapiens, A549, read-out: GI50 A549 (Lung)
[20] = Homo sapiens, HBL-100, read-out: GI50 HBL-100 (Breast)
[21] = Homo sapiens, HeLa, read-out: GI50 HeLa (Cervix)
[22] = Homo sapiens, SW1573, read-out: GI50 SW1573 (Lung)
[23] = with verapamil, read-out: GI50 SW153 w Verapamil
[24] = without verapamil, read-out: GI50 SW1573 w/o Verapamil
[25] = with verapamil (concentration not stated), with verapamil, read-out: GI50 SW1573/PGP w Verapamil
[26] = without verapamil, read-out: GI50 SW1573/PGP w/o Verapamil
[27] = with verapamil, reference drugs, read-out: GI50 SW153 w Verapamil
[28] = without verapamil, reference drugs, read-out: GI50 SW1573 w/o Verapamil
[29] = with verapamil (concentration not stated), with verapamil, reference drugs, read-out: GI50 SW1573/PGP w Verapamil

| Compound | GI50 [1, 13] [µM] | GI50 [2, 14] [µM] | GI50 [3, 15] [µM] | GI50 [4, 16] [µM] | GI50 [5, 17] [µM] | GI50 [6, 18] [µM] | EC50 [7] [µM] | also measured |
| --- | --- | --- | --- | --- | --- | --- | --- | --- |
| 3-phenylselenopropanoic acid [Compound 17] |  |  |  |  |  |  |  | GI50 ([1]; read-out: GI50 A549 (Lung)): > 100 µM; GI50 ([2]; read-out: GI50 HBL-100 (Breast)): > 100 µM; GI50 ([3]; read-out: GI50 HeLa (Cervix)): > 100 µM; GI50 ([4]; Table S1, read-out: GI50 SW1573 (Lung)): > 100 µM; GI50 ([5]; drug resistant line): > 100 µM; GI50 ([6]; drug resistant line): > 100 µM |
| O=C(O)CCCSSCCCC(=O)O [Compound 2, 4,4′-Dithiobisbuthyric acid] | > 100 | > 100 | > 100 | > 100 | > 100 | > 100 |  |  |
| O=C1CCCSSCCCC(=O)Oc2cc(CCO)ccc2O1 [Compound 4, [4”-(2”‘-Hydroxyethyl)-1”,2”-phenylene]-4,4’-dithiobisbutyrate] | > 100 | > 100 | > 100 | > 100 | > 100 | > 100 | > 175 | % Scavenging of H2O2 [8]: complete loss of ROS scavenging properties; also recorded: --- ^2 |
| O=C(O)CSSCC(=O)O [Compound 6, Dithiodiacetic acid] | > 100 | > 100 | > 100 | > 100 | > 100 | > 100 |  |  |
| O=C(O)CCSSCCC(=O)O [Compound 7, 3,3′-Dithiobispropionic acid] | > 100 | > 100 | > 100 | > 100 | > 100 | > 100 |  |  |
| O=C(CCSSCCC(=O)NCCc1ccc(O)c(O)c1)NCCc1ccc(O)c(O)c1 [Compound 9, 3,3′-Dithiobis{N-[2′’-(3′’’,4′’’-dihydroxyphenyl)ethyl]propanamide}] | 32 ± 1 | 31 ± 7 | 28 ± 2 | 42 ± 6 | 45 ± 19 | > 100 | 4.2 ± 0.1 | GI50 ([9]; Homo sapiens, read-out: GI50 over the tumour cell lines (range, bound or words)): < 45 µM |
| O=C(O)CC[Se][Se]CCC(=O)O [Compound 13, 3,3′-Diselenobispropanoic acid] | 4.1 ± 0.1 | 94 ± 8 | 18 ± 1 | > 100 | 20 ± 8 | 5.6 ± 0.6 |  |  |
| O=C(O)CCC[Se][Se]CCCC(=O)O [Compound 14, 4,4′-Diselenobisbutyric acid] |  |  |  |  |  |  |  | GI50 [1, 19]: 46 ± 14 µM; GI50 [2, 20]: > 100 µM; GI50 [3, 21]: 44 ± 13 µM; GI50 [4, 22]: > 100 µM; GI50 ([5]; Homo sapiens, T47D): 50 ± 14 µM; GI50 ([6]; Homo sapiens, WiDr): 54 ± 6 µM |
| O=C(CC[Se][Se]CCC(=O)NCCc1ccc(O)c(O)c1)NCCc1ccc(O)c(O)c1 [Compound 15, 3,3′-Diselenobis{N-[2′’-(3′’’,4′’’-dihydroxyphenyl)ethyl]propanamide}] | 5.4 ± 1.1 | 29 ± 6 | 3.6 ± 1.1 | 5.9 ± 1.3 | 39 ± 5 | 31 ± 7 | 7.8 ± 0.2 | % Scavenging of H2O2 [8]: 40.0 ± 3.1%; GI50 [10, 23]: 5 ± 0.7 µM; GI50 [10, 24]: 3.3 ± 0.4 µM; GI50 at 48 h [11, 25]: 5.3 ± 0.3 µM; GI50 at 48 h [11, 26]: 5 ± 0.1 µM; Rf w Verapamil [12]: 1.1; Rf w/o Verapamil [12]: 1.5 |
| N#C[Se]CCC(=O)O [Compound 19, 3-Selenocyanatopropanoic acid] |  |  |  |  |  |  |  | GI50 [1, 19]: 18 ± 6 µM; GI50 [2, 20]: 93 ± 9 µM; GI50 [3, 21]: 32 ± 10 µM; GI50 [4, 22]: > 100 µM; GI50 ([5]; Homo sapiens, T47D): 36 ± 1 µM; GI50 ([6]; Homo sapiens, WiDr): 28 ± 4 µM |
| O=c1c2ccccc2[se]n1CCc1ccc(O)c(O)c1 [Compound 26, N-[2′-(3′’,4′’-Dihydroxyphenyl)ethyl]-1,2-benzisoselenazole-3(2H)-one] |  |  |  |  |  |  | 7.8 ± 0.2 | GI50 [1, 19]: 21 ± 7 µM; GI50 [2, 20]: 21 ± 4 µM; GI50 [3, 21]: 21 ± 6 µM; GI50 [4, 22]: 21 ± 12 µM; GI50 ([5]; Homo sapiens, T47D): 28 ± 6 µM; GI50 ([6]; Homo sapiens, WiDr): 30 ± 3 µM; GI50 over the tumour cell lines (range, bound or words) [9]: moderate antiproliferative properties |
| c1ccc(C[Se]CCc2ccc3c(c2)OCO3)cc1 [Compound 38, 1-Benzylseleno-2-(3’, 4’-methylenedioxyphenyl)ethane] | 19 ± 2 | 14 ± 3 | 5.2 ± 1 | 27 ± 5 | 4.7 ± 1.2 | 14 ± 2 |  | GI50 [10, 23]: 15 ± 3 µM; GI50 [10, 24]: 27 ± 2 µM; GI50 at 48 h [11, 25]: 25 ± 2 µM; GI50 at 48 h [11, 26]: 29 ± 0.2 µM; Rf w Verapamil [12]: 1.6; Rf w/o Verapamil [12]: 1.1 |
| c1cc2c(cc1CCC[Se][Se]CCCc1ccc3c(c1)OCO3)OCO2 [Compound 41, Bis[3-(3’, 4’-methylenedioxyphenyl)propyl]diselenide] |  |  |  |  |  |  |  | GI50 [1, 19]: 32 ± 8 µM; GI50 [2, 20]: 93 ± 10 µM; GI50 [3, 21]: 31 ± 8 µM; GI50 [4, 22]: 37 ± 15 µM; GI50 ([5]; Homo sapiens, T47D): 29 ± 5 µM; GI50 ([6]; Homo sapiens, WiDr): 29 ± 8 µM; GI50 over the tumour cell lines (range, bound or words) [9]: only a moderate antiproliferative agent |
| NCCc1ccc(O)c(O)c1 [Dopamine, dopamine, reference compound] |  |  |  |  |  |  | 11.4 ± 1.2 | % Scavenging of H2O2 [8]: 46.1 ± 4.6% |
| O=c1c2ccccc2[se]n1-c1ccccc1 [Ebselen, 2-phenyl-1,2-benzoselenazol-3-one, reference compound] | 25 ± 9 | 13 ± 3 | 26 ± 8 | 28 ± 4 | 90 ± 14 | > 100 |  |  |
| OCCc1ccc(O)c(O)c1 [HT, hydroxytyrosol, reference compound] |  |  |  |  |  |  | 13.4 ± 0.6 |  |
| CC(=O)O[C@H]1C(=O)[C@@]2(C)[C@H]([C@H](OC(=O)c3ccccc3)[C@]3(O)C[C@H](OC(=O)[C@H](O)[C@@H](NC(=O)c4ccccc4)c4ccccc4)C(C)=C1C3(C)C)[C@]1(OC(C)=O)CO[C@@H]1C[C@@H]2O [PTX, paclitaxel, reference compound] |  |  |  |  |  |  |  | GI50 [10, 27]: 0.0016 ± 0.0002 µM; GI50 [10, 28]: 0.0015 ± 0.0005 µM; GI50 at 48 h [11, 29]: 0.0042 ± 0.0009 µM; Rf w Verapamil [12]: 2.6; Rf w/o Verapamil [12]: 128 |
| CC[C@]1(O)C[C@@H]2CN(CCc3c([nH]c4ccccc34)[C@@](C(=O)OC)(c3cc4c(cc3OC)N(C)[C@H]3[C@@](O)(C(=O)OC)[C@H](OC(C)=O)[C@]5(CC)C=CCN6CC[C@]43[C@@H]65)C2)C1 [VB, vinblastine, reference compound] |  |  |  |  |  |  |  | GI50 [10, 27]: 0.0008 ± 0.0002 µM; GI50 [10, 28]: 0.0009 ± 0.0003 µM; GI50 at 48 h [11, 29]: 0.001 ± 0.0005 µM; Rf w Verapamil [12]: 1.3; Rf w/o Verapamil [12]: 2388 |

From PMC7692337, “Masked Phenolic-Selenium Conjugates: Potent and Selective Antiproliferative Agents Overcoming P-gp Resistance” (Pharmaceuticals, 2020)
